From article PMC4085075, “Characterization of Estrogen and Androgen Activity of Food Contact Materials by Different In Vitro Bioassays (YES, YAS, ERα and AR CALUX) and Chromatographic Analysis (GC-MS, HPLC-MS)” (PLoS ONE, 2014)
Read-outs that look alike come from different tables or passages of the source.

Key:
[1] = system: MCF7; set-up: method as in PMID 11485868; settings: human cell-based MCF7 proliferation assay; cited from earlier work
[2] = system: CHO-K1 cells; set-up: method as in PMID 18261797; settings: cited from earlier work
[3] = system: rainbow trout; set-up: method as in PMID 18261797; settings: cited from earlier work
[4] = target: T1, human estrogen receptor (hERα) (Homo sapiens, UniProt P03372); experiment: Yeast estrogen screen (YES); format: cell-based
T1 construct: expressed in transfected cells; host or cells: recombinant yeast strain (provided by Wagner and Oehlmann, Frankfurt; by permission of Routledge and Sumpter)
T1 sequence (P03372 1-595): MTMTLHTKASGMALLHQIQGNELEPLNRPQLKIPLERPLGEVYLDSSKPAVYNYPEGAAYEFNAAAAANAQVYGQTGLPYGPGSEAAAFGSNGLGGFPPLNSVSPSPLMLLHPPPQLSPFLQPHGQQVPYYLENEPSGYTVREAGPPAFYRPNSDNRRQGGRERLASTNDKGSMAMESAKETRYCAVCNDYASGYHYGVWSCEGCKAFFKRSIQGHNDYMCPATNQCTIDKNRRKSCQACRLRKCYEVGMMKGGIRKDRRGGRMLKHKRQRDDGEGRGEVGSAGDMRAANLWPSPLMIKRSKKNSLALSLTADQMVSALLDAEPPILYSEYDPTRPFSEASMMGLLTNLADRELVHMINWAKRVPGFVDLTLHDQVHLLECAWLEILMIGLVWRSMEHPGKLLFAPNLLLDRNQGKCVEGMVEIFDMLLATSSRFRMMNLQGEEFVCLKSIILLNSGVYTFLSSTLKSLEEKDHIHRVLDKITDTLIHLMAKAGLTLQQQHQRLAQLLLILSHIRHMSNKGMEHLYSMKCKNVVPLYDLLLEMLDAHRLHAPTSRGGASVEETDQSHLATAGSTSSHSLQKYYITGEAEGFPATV
Procedure: (§1) Briefly, different resin types of food packaging were migrated with food simulants for 10 days at 60°C. […] From every sample two independent migrates were prepared, subsequently concentrated by solid phase extraction and tested in the bioassays. […] For each migration a solvent blank of each food simulant was migrated in a glass bottle with a polytetrafluorethylene-coated cap. Prior to solid phase extraction, 1 ml and 20 ml of each migrate were set aside for HPLC and GC analysis.
(§2) After 10 days of migration, solid phase extraction by Waters Oasis HLB columns (5 cc/200 mg) was used to extract hormone active components from the food simulants. As described in detail by Kirchnawy et al. sample migrates diluted to 10% ethanol and adjusted to pH 3 were drawn through the columns and eluted into […] DMSO. Elutes were evaporated under a nitrogen stream to a final volume of 150–200 µl and stored at 4°C prior to analysis by YES, YAS and CALUX bioassays. Extraction recoveries and reproducibility of the solid phase extraction were previously determined by Kirchnawy et al..
The yeast strain contains the stably integrated human estrogen receptor (hERα) gene and an expression plasmid containing the reporter gene lacZ under the control of estrogen responsive elements (ERE). The activation of the hERα by the binding of an estrogen active substance leads to the expression of β-galactosidase, which converts the substrate chlorophenol red-β-D-galactopyranoside (CPRG) into chlorophenol red.
The analysis of food contact materials was conducted as previously described by Kirchnawy et al.. Briefly, yeast cells were incubated with fresh media supplemented with 1% of the respective DMSO sample extracts on a 96-well microtiter plate for 24 h. […] The regression was calculated by MS Excel, using the formula for a linear regression curve (y = kx + d).

[5] = target: T2, human estrogen receptor alpha (hERα) (Homo sapiens, UniProt P03372); experiment: ERα CALUX reporter gene assay in U2-OS cells; format: cell-based; settings: for EC50: footnote a: inhibition of U2-OS cell growth at higher concentrations
T2 construct: host or cells: human U2-OS osteosarcoma cells
T2 sequence (P03372 1-595): T1 sequence (P03372 1-595)
Procedure: as §1, §2
The ERα CALUX is a human U2-OS cell line stably co-transfected with an expression construct for the human estrogen receptor alpha (hERα). Activation of the hERα by the binding of an estrogen active substance leads to the transcription of luciferase, which emits light when luciferin is added as a substrate.
Assay procedure was conducted as previously described by Sonneveld et al. with modifications. U2-OS cells were plated at a concentration of 10 000 cells/well with 100 µl phenol red-free Dulbecco's modified eagle medium (DMEM) (supplemented with dextran-coated charcoal-stripped FCS) in a 96-well microtiter plate. After 24 h incubation at 37°C in a humidified atmosphere with 5% CO2, DMEM medium was refreshed and cells were incubated for another 24 h with 0.5% of the respective DMSO sample extract. After examining cell growth under a microscope to ensure that sample extracts had no cytotoxic or growth inhibiting effects, 50 µl Steady Glo Luciferase-Mix (Promega) was added to each well and incubated for 15 min for cell lysis. This was followed by measuring the luciferase activity of each well using a multilabel reader (Victor^3, Perkin Elmer).

[6] = set-up: method as in PMID 21050888; settings: cited from earlier work
[7] = target: T3, human androgen receptor (hAR) (Homo sapiens, UniProt P10275); experiment: Yeast androgen screen (YAS); format: cell-based; settings: footnote b: inhibition of yeast growth at higher concentrations
T3 sequence (P10275 1-920): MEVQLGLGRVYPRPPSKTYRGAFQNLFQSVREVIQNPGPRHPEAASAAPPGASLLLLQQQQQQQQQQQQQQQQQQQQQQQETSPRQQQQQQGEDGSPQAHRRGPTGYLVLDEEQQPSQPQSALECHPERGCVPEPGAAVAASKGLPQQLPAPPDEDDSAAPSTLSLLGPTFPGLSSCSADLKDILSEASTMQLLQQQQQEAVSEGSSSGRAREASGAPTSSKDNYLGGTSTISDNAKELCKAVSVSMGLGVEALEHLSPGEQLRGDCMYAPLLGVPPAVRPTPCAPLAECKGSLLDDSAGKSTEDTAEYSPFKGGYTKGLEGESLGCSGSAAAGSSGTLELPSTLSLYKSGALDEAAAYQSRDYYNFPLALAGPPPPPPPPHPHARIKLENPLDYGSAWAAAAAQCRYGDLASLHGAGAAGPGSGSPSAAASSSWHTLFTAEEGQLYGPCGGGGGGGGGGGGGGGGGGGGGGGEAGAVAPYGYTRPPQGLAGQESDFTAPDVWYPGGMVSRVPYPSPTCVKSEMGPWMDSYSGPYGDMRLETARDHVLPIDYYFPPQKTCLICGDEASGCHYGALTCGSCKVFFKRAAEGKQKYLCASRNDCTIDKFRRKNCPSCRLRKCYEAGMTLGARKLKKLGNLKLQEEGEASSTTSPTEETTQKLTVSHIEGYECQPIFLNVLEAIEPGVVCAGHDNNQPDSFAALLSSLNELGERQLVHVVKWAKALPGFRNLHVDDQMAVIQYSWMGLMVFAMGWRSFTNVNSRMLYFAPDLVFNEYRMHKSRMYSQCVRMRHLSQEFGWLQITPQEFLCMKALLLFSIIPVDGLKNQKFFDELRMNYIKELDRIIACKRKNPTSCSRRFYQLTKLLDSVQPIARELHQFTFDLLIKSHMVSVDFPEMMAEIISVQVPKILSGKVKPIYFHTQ
Procedure: as §1, §2

[8] = target: T3, human androgen receptor (hAR); experiment: AR CALUX reporter gene assay in U2-OS cells; format: cell-based; set-up: host or cells: human U2-OS osteosarcoma cells; settings: footnote a: inhibition of U2-OS cell growth at higher concentrations
Procedure: as §1, §2

[9] = system: kidney fibroblast cell 293T and human breast cancer cells ZR-75; set-up: method as in PMID 7556011; settings: at a concentration of 100 µmol/l; cited from earlier work
[10] = agonist mode, footnote b: inhibition of yeast growth at higher concentrations, read-out: YES Estrogen activity EC50
[11] = antagonist mode, spiked with 80 pmol/l 17β-estradiol, footnote b: inhibition of yeast growth at higher concentrations, read-out: YES Antiestrogen activity EC50
[12] = agonist mode, read-out: ER CALUX Estrogen activity EC50
[13] = antagonist mode, spiked with 8 pmol/l 17β-estradiol, read-out: ER CALUX Antiestrogen activity EC50

EC50 [4, 10]	EC50 [4, 11]	EC50 [5, 12]	EC50 [5, 13]	Structure (SMILES)	estrogen activity in the YES (in words) ([4]; agonist mode)	estrogen activity in the ERα CALUX (in words) ([5]; agonist mode)	other results
				c1ccc(C2CCC2c2ccccc2)cc1 (stereo not drawn) [1,2-diphenylcyclobutane]			times less active than 17β-estradiol [1]: 4*10^5
> 10 µM	> 10 µM	> 20 µM	> 20 µM	CC(C)(C)c1ccc(O)c(C(C)(C)C)c1 [2,4-di-tert-butylphenol]			androgen antagonist in CHO-K1 cells [2]: androgen antagonist; androgen antagonist in rainbow trout [3]: androgen antagonist
				CC(C)(c1ccccc1)c1ccc(O)c(C(C)(C)c2ccccc2)c1 [2,4-di-cumylphenol]	showed estrogen activity	showed estrogen activity	EC50 [4]: > 300 µM; EC50 ([5]; ER CALUX Antiestrogen activity EC50, antagonist mode, spiked with 8 pmol/l 17β-estradiol): > 20 µM; EC50 ([5]; ER CALUX Estrogen activity EC50, agonist mode): 5 µM
500 µM	> 1000 µM	40 µM	> 500 µM	c1ccc(CCCc2ccccc2)cc1 [1,3-diphenylpropane]	tested positive for estrogen activity	tested positive for estrogen activity	EC50 ([7]; agonist mode, read-out: YAS Androgen activity EC50): > 1000 µM; EC50 ([7]; antagonist mode, spiked with 2.4 nmol/l DHT, read-out: YAS Antiandrogen activity EC50): 30 µM; EC50 ([8]; agonist mode, read-out: AR CALUX Androgen activity EC50): > 500 µM; EC50 ([8]; antagonist mode, spiked with 400 pmol/l DHT, read-out: AR CALUX Antiandrogen activity EC50): 30 µM
				Cc1cc(C(C)(C)C)c(O)c(C(C)(C)C)c1 [2,6-bis(1,1-dimethylethyl)-4-methylphenol]			estrogen activity in 293T and ZR-75 cells [9]: tested positive for estrogen

Structure (SMILES)	EC50 [4, 10]	EC50 [4, 11]	EC50 [5, 12]	EC50 [5, 13]	estrogen activity in the YES (in words) ([4]; agonist mode)	estrogen activity in the ERα CALUX (in words) ([5]; agonist mode)	other results
CCCCC(CC)COC(=O)CCCCC(=O)OCC(CC)CCCC (stereo not drawn) [diethylhexyladipate (DEHA), diethylhexyladipate]	> 1000 µM	> 1000 µM	> 500 µM	> 500 µM	did not show any activity	did not show any activity	estrogen activity using the E-Screen [6]: tested positive for estrogen activity
